Assay results as given in US20210401867A1, “PHOTOSENSITIZERS AND METHOD OF TREATING CANCER USING THE SAME” (Cheng-Wen Wu, priority 2018, published 2021).

What was measured:
[1] = system: subcutaneous malignant solid tumor comprised of FaDu cells; test: in vivo tumor growth of subcutaneous FaDu solid tumor on tumorigenic mice; conditions: for tumor growth inhibition rate: end of the in vivo test; for relative proliferation rate of solid tumor: repeated after 7 days
Description: FIG. 12 is a schematic diagram of an in vivo animal experiment, in accordance with an exemplary embodiment of the present disclosure. A subcutaneous malignant solid tumor comprised of FaDu cells (tumor size is about 200 mm^3) on the tumorigenic mice is injected with 0.5 μg/μl of IdU. 4 hours after the injection, the solid tumor is then irradiated by 4 Gy 33 keV NR. The IdU-NR treatment are repeated on the same tumor after 7 days. Other groups of mouse are only injected with 50 μg of IdU or only irradiated with 4 Gy 33 keV NR, and the IdU injection or the NR irradiation is repeated on the same tumor after 7 days. The control group is the mice without NR, IdU, or IdU-NR treatment.
The subcutaneous malignant solid tumor comprised of FaDu cells on the tumorigenic mice is treated with IdU, NR, or IdU and NR, following the same experiment procedure as depicted in FIG. 12. The relative proliferation rates of the solid tumors are calculated by measuring the size of the solid tumor on Days 3, 7, 10, 14, 17, 21, 24, and 28, respectively. […] The solid tumor of IdU-NR group has the lowest relative proliferation rate among other groups, and the relative proliferation rate of IdU-NR group is even lower than 100% (p<0.05), this indicates the tumor size is smaller after the IdU and NR treatment.
To further investigate a therapeutically effective dosage for the combination of IdU and NR, another series of in vivo experiments are conducted, see FIGS. 15A-15F. The experiment procedure is the same with the procedure described in FIG. 12. FIG. 15A and FIG. 15B show cells irradiated with 2.25 Gy NR and 2.25 Gy RS2000, FIG. 15C and FIG. 15D show cells irradiated with 4.5 Gy NR and 4.5 Gy RS2000, and FIG. 15E and FIG. 15F show cells irradiated with 9 Gy NR and 9 Gy RS2000, in accordance with exemplary embodiments of the present disclosure. Control groups in FIGS. 15A-15F are FaDu cells isolated from the subcutaneous solid tumor of the tumorigenic mouse without treatment of IdU or any radiation. The tumor growth index in FIGS. 15A-15F are calculated based on tumor volumes: for each of the tumorigenic mouse, the tumor volume on Day 0 is set as 100%, and relative volume percentages in the following days relative to Day 0 are presented as the tumor growth index (%).

FaDu cells = test: comet assay for DNA damage in FaDu cells; assay type: cell-based, human; conditions: 1 μM BrdU with 1 Gy of 14 keV NR, versus BrdU-RS2000 or RS2000
Description: Referring to FIGS. 22A and 22B, comet assays for evaluating DNA damages induced by BrdU, RS2000, BrdU with RS2000, NR, and NR with BrdU are provided in accordance with an exemplary embodiment of the present disclosure. Comet assays are commonly used to measure DNA single-strand breaks […] and double-strand breaks (DSBs). FaDu cells (10^4 cells/10 μl of PBS) are mixed with 75 μl of 0.75% low-melting agarose. The mixture is then immediately embedded onto a glass slide pre-coated with 2 layers of 1% agarose, and spread evenly with a coverslip. The mixture on the glass slide is solidified on ice for 5 minutes. 2 additional layers of 1% agarose are then coated on the cell layer. The cell is then soaked with cell lysis buffer (10 mM Tris, 2.5 M NaCl, 100 mM Na2-EDTA, and 1% Triton X-100, pH 10.0) at 4° C. for 1 hour. The slide is then placed horizontally in an electrophoretic apparatus with alkaline electrophoretic buffer ([…] and 1 mM Na2-EDTA, pH >12.0) for 60 minutes, and then electrophoresis is conducted in the apparatus for 30 minutes at 25 V and 300 mA. After the electrophoresis has ended, the slide is soaked with neutralization buffer (0.4 M Tris, pH 7.4) for 10 minutes. The cells on the slide are stained with propidium iodide (PI) of 20 μg/ml and subjected to microscopic examination. […] FIG. 22B is a quantified result of FIG. 22A. […]

SMILES | tumor growth inhibition rate ([1]; IdU 50 μg and 4.5 Gy NR) | tumor growth inhibition rate ([1]; IdU 50 μg and 9 Gy NR) | tumor growth versus RS2000 only ([1]; IdU 50 μg and RS2000 (2.25, 4.5, 9 Gy)) | relative proliferation rate of solid tumor ([1]; IdU-NR group, 0.5 μg/μl IdU plus 4 Gy 33 keV NR, p<0.05) | relative proliferation rate of solid tumor ([1]; IdU-only group, 50 μg of IdU, to Day 28) | tumor growth (tumor growth index) ([1]; treated only with IdU, 50 μg) | relative DNA tail movement (comet assay) (FaDu cells)
O=c1[nH]c(=O)n([C@H]2C[C@H](O)[C@@H](CO)O2)cc1I [IdU, iododeoxyuridine] | 68% | 83% | does not significantly inhibit the tumor growth | lower than 100% | lower relative proliferation rate than the control group | not inhibited | –
O=c1[nH]c(=O)n([C@H]2C[C@H](O)[C@@H](CO)O2)cc1Br [BrdU, bromodeoxyuridine] | – | – | – | – | – | – | largest relative DNA tail movements
